Here are results for one molecule from ChEMBL document CHEMBL1151379, “Chemical Constituents of Hyptis suaveolens. Part I. Spectral and Biological Studies on a Triterpene Acid” (1981).

Bounds are passed on as bounds.

The test system of the assay is Bipolaris oryzae. Put plainly: Antifungal activity against Helminthosporium oryzae at 1000 ppm. The class given is functional.

`C[C@H]1[C@H](C)CC[C@]2(C)CC[C@]3(C(=O)O)C(=CC[C@@H]4[C@@]5(C)CC[C@H](O)C(C)(C)[C@@H]5CC[C@]43C)[C@H]12` had an Activity of less than 10%.
